Measured values taken from paper PMC5458547, “Discovery of first-in-class reversible dual small molecule inhibitors against G9a and DNMTs in hematological malignancies” (Nature Communications, 2017).

Assays:
[1] = target: T1, cytochrome P450 1A2 (Homo sapiens, UniProt P05177); experiment: CYP inhibition in human liver microsomes; assay type: in vitro ADME; conditions: 10 µM
T1 construct: tissue BD Gentest; host or cells: human liver microsomes
Procedure: Positive control was obtained in the presence of the vehicle of the compounds. Negative control was obtained in the absence of HDAC enzyme activity. A best fit curve was fitted using GraphPad Prism 5 to derive the half maximal inhibitory concentration (IC50) from this curve. Results are the average of two […]
3A4) was evaluated in human liver microsomes at Wuxi (http://www.wuxi.com/). Test compounds (10 µM) and the corresponding substrates for each P450 isoform (20 µL) were incubated with 140 µL liver […]
reaction was terminated by adding 400 µL cold stop solution (200 ng/mL tolbutamide in ACN) and samples were centrifuged at 4000 rpm for 20 minutes. Supernatants were analyzed by LC-MS/MS (Shimadzu LC 20-AD - API 4000), using peak area ratio of analyte/internal standard. Test compounds and positive controls were tested in duplicates. The percentage of inhibition was calculated as the ratio of substrate metabolite detected in treated and non-treated wells.
This study was conducted by Equilibrium Dialysis at Wuxi (http://www.wuxi.com/). HT-Dialysis plate (Model HTD 96 b, Cat# 1006) and the dialysis membrane (molecular weight cut off 12-14 kDa, Cat# 1101) were purchased from HT Dialysis LLC (Gales Ferry, CT). Human plasma and CD-1 mouse plasma from Bioreclamation were thawed prior to experiment and the pH was adjusted at 7.4. […]
(§1) Results are the average of three replicates. […]

[2] = tested on: HEL; experiment: Cell proliferation assay (MTS); assay type: cell-based; conditions: Homo sapiens, AML, 48 h
[3] = tested on: SK-MEL-103; experiment: Cell proliferation assay (MTS); assay type: cell-based; conditions: Homo sapiens, Melanoma
[4] = target: T2, SET7-9 (Homo sapiens, UniProt Q8WTS6); experiment: Epigenetics selectivity panel (BPS Bioscience); assay type: biochemical
T2 construct: purchased DiscoverX KINOMEscan (kinases); BPS Bioscience (epigenetic targets)

[5] = Liver microsomal stability; assay type: in vitro ADME; conditions: mouse, mouse liver microsomes; read-out: Liver Microsomal Stability. Estimation T1/2
[6] = tested on: OCI-AML-2; experiment: Cell proliferation assay (MTS); assay type: cell-based, human; conditions: Homo sapiens, OCI-AML2; AML, 48 h; read-out: GI50
[7] = target: T3, JMJD2B (Homo sapiens, UniProt O94953); experiment: Epigenetics selectivity panel (BPS Bioscience); assay type: biochemical
T3 construct: purchased DiscoverX KINOMEscan (kinases); BPS Bioscience (epigenetic targets)

[8] = tested on: SK-MEL-28; experiment: Cell proliferation assay (MTS); assay type: cell-based; conditions: Homo sapiens, Melanoma
[9] = tested on: 451-LU; experiment: Cell proliferation assay (MTS); assay type: cell-based; conditions: Homo sapiens, Melanoma
[10] = Plasma protein binding (equilibrium dialysis); assay type: in vitro ADME; conditions: pH 7.4
Procedure: This study was conducted by Equilibrium Dialysis at Wuxi (http://www.wuxi.com/). HT-Dialysis plate (Model HTD 96 b, Cat# 1006) and the dialysis membrane (molecular weight cut off 12-14 kDa, Cat# 1101) were purchased from HT Dialysis LLC (Gales Ferry, CT). Human plasma and CD-1 mouse plasma from Bioreclamation were thawed prior to experiment and the pH was adjusted at 7.4. Concentrations of test compounds in starting solution (before dialysis), plasma side of the membrane and buffer side of the membrane were quantified by LC-MS/MS (Shimadzu LC 20-AD - API 4000) methodologies, using peak area ratio of analyte/internal standard. The fraction of unbound, bound and recovery were calculated.
as §1
The pH was adjusted to 7.40±0.05 using either 1 M sodium hydroxide or 1 M hydrochloric acid. Test compounds were diluted to 0.2 mM in DMSO and further diluted prior to testing to 10 µM in PBS, pH 7.4 (final 5% DMSO). The assay was performed using a 96-well multiscreen-IP PAMPA plate (Millipore, Cat. # MAIPN4510), whose PVDF membrane was pre-coated with 5 µL of 1% lecithin/dodecane mixture. 150 µL of PBS solution containing the test compounds were added to the donor chamber. Blank PBS (300 µL) was also added to the PTFE acceptor plate, and the donor and acceptor plates were assembled and incubated for 4 h at room temperature with shaking at 150 rpm. […]

[11] = tested on: LOVO; experiment: Cell proliferation assay (MTS); assay type: cell-based; conditions: Homo sapiens, Colorectal
[12] = tested on: MV4-11; experiment: Cell proliferation assay (MTS); assay type: cell-based; conditions: Homo sapiens, MV4-11; AML, 48 h; read-out: GI50
[13] = tested on: H23; experiment: Cell proliferation assay (MTS); assay type: cell-based; conditions: Homo sapiens, NCI-H23; NSCLC
[14] = Cytotoxicity in THLE-2 cells (ATP); assay type: cell-based; conditions: human; THLE-2, 72 h exposure; read-out: LC50
[15] = tested on: PC3; experiment: Cell proliferation assay (MTS); assay type: cell-based; conditions: Homo sapiens, PC-3; Prostate
[16] = tested on: SEM cells; experiment: Cell proliferation assay (MTS); assay type: cell-based; conditions: Homo sapiens; ALL, 48 h
[17] = tested on: HCT-116; experiment: Cell proliferation assay (MTS); assay type: cell-based; conditions: Homo sapiens, Colorectal
[18] = tested on: SK-MEL-147; experiment: Cell proliferation assay (MTS); assay type: cell-based; conditions: Homo sapiens, Melanoma
[19] = target: T4, Human HDAC6 (Homo sapiens, UniProt Q9UBN7); experiment: HDAC6 enzyme activity assay; assay type: biochemical
T4 construct: purchased DiscoverX KINOMEscan (kinases); BPS Bioscience (epigenetic targets)

[20] = in vivo; parameters: species or system mice; conditions: mouse, iv
[21] = tested on: KG-1; experiment: Cell proliferation assay (MTS); assay type: cell-based; conditions: Homo sapiens, AML, 48 h
[22] = tested on: NALM-20; experiment: Cell proliferation assay (MTS); assay type: cell-based; conditions: Homo sapiens; ALL, 48 h

T4 sequence (Q9UBN7 whole entry): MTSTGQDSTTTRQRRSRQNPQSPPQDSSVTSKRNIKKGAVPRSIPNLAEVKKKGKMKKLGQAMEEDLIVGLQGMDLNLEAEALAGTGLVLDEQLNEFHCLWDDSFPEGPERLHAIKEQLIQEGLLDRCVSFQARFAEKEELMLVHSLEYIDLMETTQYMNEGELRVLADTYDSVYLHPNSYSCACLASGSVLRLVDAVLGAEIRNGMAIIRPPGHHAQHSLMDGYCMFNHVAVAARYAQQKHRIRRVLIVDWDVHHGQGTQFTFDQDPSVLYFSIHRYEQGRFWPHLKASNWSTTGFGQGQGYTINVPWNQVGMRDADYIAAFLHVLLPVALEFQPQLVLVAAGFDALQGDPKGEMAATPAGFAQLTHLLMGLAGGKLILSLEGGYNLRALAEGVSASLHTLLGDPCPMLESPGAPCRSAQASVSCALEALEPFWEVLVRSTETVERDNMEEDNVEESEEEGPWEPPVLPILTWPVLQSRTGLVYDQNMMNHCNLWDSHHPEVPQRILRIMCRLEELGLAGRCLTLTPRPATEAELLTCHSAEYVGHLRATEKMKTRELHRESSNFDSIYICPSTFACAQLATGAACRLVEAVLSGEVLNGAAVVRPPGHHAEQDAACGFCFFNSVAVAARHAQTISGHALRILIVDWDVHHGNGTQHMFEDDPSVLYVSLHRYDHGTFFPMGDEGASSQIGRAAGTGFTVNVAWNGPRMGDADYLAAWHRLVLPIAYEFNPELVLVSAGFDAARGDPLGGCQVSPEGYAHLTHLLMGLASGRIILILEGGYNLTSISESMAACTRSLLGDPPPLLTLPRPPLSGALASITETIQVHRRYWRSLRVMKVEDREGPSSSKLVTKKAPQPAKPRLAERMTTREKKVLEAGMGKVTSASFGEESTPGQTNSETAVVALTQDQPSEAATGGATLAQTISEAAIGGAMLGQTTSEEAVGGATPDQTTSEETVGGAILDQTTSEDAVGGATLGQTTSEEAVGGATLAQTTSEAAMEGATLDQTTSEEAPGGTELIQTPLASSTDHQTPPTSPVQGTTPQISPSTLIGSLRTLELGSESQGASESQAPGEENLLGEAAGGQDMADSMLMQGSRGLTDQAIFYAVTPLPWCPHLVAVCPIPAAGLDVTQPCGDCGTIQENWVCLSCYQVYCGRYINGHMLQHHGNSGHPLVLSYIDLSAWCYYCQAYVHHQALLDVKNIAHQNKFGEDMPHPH
T1 sequence (P05177 whole entry): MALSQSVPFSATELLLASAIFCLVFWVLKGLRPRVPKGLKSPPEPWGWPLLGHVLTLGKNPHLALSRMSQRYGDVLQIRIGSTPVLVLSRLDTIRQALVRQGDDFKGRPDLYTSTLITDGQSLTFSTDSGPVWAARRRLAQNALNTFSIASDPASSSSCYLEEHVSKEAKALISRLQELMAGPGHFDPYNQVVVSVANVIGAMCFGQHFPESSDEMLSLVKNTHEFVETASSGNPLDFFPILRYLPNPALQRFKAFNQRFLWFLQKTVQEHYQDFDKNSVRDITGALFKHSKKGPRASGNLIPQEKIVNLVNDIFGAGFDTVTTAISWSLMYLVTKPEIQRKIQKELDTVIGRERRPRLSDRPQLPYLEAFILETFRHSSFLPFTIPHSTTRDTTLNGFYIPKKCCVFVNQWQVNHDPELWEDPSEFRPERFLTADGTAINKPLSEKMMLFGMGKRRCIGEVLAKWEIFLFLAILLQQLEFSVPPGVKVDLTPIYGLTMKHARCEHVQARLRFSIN
T3 sequence (O94953 whole entry): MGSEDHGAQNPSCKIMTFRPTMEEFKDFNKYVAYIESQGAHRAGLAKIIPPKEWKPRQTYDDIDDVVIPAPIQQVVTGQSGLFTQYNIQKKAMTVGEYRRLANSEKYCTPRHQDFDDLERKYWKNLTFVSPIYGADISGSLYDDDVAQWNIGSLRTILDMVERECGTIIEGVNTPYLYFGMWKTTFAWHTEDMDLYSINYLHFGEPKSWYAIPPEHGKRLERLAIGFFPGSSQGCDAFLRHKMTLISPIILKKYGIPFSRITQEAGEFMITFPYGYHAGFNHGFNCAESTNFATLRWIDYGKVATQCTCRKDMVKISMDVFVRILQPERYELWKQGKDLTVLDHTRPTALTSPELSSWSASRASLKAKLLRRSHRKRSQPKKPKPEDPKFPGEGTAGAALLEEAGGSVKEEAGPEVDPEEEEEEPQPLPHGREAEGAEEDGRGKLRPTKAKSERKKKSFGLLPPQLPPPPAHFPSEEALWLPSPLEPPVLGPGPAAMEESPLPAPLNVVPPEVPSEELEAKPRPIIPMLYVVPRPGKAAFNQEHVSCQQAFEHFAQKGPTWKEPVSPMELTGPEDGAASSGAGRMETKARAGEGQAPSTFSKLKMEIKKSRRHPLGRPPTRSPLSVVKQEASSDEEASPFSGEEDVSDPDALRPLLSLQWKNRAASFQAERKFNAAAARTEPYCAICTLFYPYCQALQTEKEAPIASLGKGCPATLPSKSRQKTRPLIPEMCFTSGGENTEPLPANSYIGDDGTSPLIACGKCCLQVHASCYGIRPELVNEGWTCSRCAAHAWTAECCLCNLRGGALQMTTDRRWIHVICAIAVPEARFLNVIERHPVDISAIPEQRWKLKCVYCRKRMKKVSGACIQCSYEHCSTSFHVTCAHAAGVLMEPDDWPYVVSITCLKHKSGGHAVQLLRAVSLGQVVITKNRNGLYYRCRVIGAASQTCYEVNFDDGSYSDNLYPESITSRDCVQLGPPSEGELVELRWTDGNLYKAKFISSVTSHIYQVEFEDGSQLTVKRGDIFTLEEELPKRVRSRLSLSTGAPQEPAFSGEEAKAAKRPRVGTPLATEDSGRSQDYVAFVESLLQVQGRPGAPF
T2 sequence (Q8WTS6 whole entry): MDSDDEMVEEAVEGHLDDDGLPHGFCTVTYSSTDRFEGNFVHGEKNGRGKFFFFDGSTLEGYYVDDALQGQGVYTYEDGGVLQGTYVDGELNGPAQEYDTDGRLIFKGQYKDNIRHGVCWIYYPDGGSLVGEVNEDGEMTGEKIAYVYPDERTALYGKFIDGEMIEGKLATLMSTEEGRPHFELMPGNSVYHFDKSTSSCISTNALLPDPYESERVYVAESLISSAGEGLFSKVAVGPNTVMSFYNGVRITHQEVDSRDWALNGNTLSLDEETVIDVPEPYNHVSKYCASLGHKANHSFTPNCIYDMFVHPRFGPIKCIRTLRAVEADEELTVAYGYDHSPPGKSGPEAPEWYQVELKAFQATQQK

COc1cc2c(NC3CCN(C)CC3)cc(-c3ccc(C)o3)nc2cc1OCCCN1CCCC1 [CM-272, 6-methoxy-2-(5-methyl-2-furyl)-N-(1-methyl-4-piperidyl)-7-(3-pyrrolidin-1-ylpropoxy)quinolin-4-amine]
P450s Inhibition: 1A2 [1]: < 10%
GI50 [2]: > 10 µM
GI50 [3]: 0.281 µM
inhibition at 10 µM [4]: 3%
half-life at 1 µM [5]: 0.587 h
GI50 [6]: 0.256 µM
inhibition at 10 µM [7]: 2%
GI50 [8]: 0.874 µM
GI50 [9]: 0.378 µM
fraction unbound ([10]; CD-1, mouse): 0.25
fraction unbound ([10]; human): 0.244
GI50 [11]: 1.22 µM
GI50 [12]: 0.269 µM
GI50 [13]: 2.49 µM
CC50 at 72 h [14]: 1.78 µM
GI50 [15]: 0.59 µM
GI50 [16]: 3.32 µM
GI50 [17]: 0.602 µM
GI50 [18]: 0.422 µM
inhibition at 10 µM [19]: 0%
clearance ([20]; […]): 15.2 mL/min/kg
half-life ([20]; […]): 24.2 h
GI50 [21]: 3.54 µM
GI50 [22]: > 5 µM

COc1cc2c(NCC3CCN(C)CC3)cc(-c3ccc(C)o3)nc2cc1OCCCN1CCCC1 [CM-579, 6-methoxy-2-(5-methyl-2-furyl)-N-[(1-methyl-4-piperidyl)methyl]-7-(3-pyrrolidin-1-ylpropoxy)quinolin-4-amine]
P450s Inhibition: 1A2 [1]: < 10%
GI50 [2]: > 10 µM
GI50 [3]: 0.029 µM
inhibition at 10 µM [4]: 0%
half-life at 1 µM [5]: 0.178 h
GI50 [6]: 0.49 µM
inhibition at 10 µM [7]: 40%
GI50 [8]: 1.39 µM
GI50 [9]: 0.069 µM
fraction unbound ([10]; CD-1, mouse): 0.046
fraction unbound ([10]; human): 0.147
GI50 [11]: 0.297 µM
GI50 [12]: 0.385 µM
GI50 [13]: 1.14 µM
CC50 at 72 h [14]: 1.3 µM
GI50 [15]: 0.307 µM
GI50 [16]: > 10 µM
GI50 [17]: 0.176 µM
GI50 [18]: 0.032 µM
inhibition at 10 µM [19]: 0%
AUC(0-t) ([20]; 1 mg/kg): 0.268 µM·h
Cmax ([20]; 1 mg/kg): 191 nM
clearance ([20]; 1 mg/kg): 95 mL/min/kg
half-life ([20]; 1 mg/kg): 6.26 h
GI50 [21]: > 10 µM
GI50 [22]: > 10 µM
